The values that follow are results of earlier work, collected in US9511030B2, “Controlled release particles” (priority 2011, dated 2016).

Consider `CCCC1COC(Cn2cncn2)(c2ccc(Cl)cc2Cl)O1` (centres unmarked) [Propiconazole, 1-[2-(2,4-dichlorophenyl)-4-n-propyl-1,3-dioxolane-2-ylmethyl]-1H-1,2,4-triazole], for which the water solubility is on record as 110 ppm. For `C=C(C)C(=O)O` [Methacrylic acid], the water solubility is listed as 8.9 mass %.
